Reference: ChEMBL document CHEMBL3351870, “Structure elucidation of phase I metabolites of the microtubule perturbagens: ceratamines A and B” (J Nat Prod, 2014)

How the values were obtained:
[1] = Retention time by reverse phase HPLC-UV chromatography; assay type: physicochemical
Liver microsome [2] = test: Drug metabolism in rat liver microsomes incubated with 10 uM ceratamine A for 60 mins assessed as metabolite level in presence of 1 mM NADPH at pH 7.4 and 37 degC by Quadrupole-time-of-flight mass spectrometry; assay type: ADME; settings: pH 7.4, 1 h
Liver microsome [3] = test: Drug metabolism in rat liver microsomes incubated with 10 uM ceratamine B for 60 mins assessed as metabolite level in presence of 1 mM NADPH at pH 7.4 and 37 degC by Quadrupole-time-of-flight mass spectrometry; assay type: ADME; settings: pH 7.4, 1 h
Liver microsome [4] = test: Drug metabolism in rat liver microsomes incubated with 10 uM ceratamine A for 60 mins assessed as metabolite formation in presence of 1 mM NADPH at pH 7.4 and 37 degC by reverse phase HPLC-UV chromatography; assay type: ADME; settings: pH 7.4, 1 h
Liver microsome [5] = test: Drug metabolism in rat liver microsomes incubated with 10 uM ceratamine B for 60 mins assessed as metabolite formation in presence of 1 mM NADPH at pH 7.4 and 37 degC by reverse phase HPLC-UV chromatography; assay type: ADME; settings: pH 7.4, 1 h

Which results are given for `COc1c(Br)cc(Cc2c3nc(N)nc-3cc[nH]c2=O)cc1Br`?
Retention_time [1]: 29.6 min; Drug metabolism (Liver microsome [2]): metabolite_detected; Drug metabolism (Liver microsome [3]): metabolite_detected

With `CNc1nc2ccn(C)c(=O)c(Cc3cc(Br)c(OC)c(Br)c3)c-2n1` [CERATAMINE A] as the compound, how does the Drug metabolism (Liver microsome [4]) read?
The Drug metabolism was “metabolite_detected”.

What does the source list for `CNc1nc2cc[nH]c(=O)c(Cc3cc(Br)c(O)c(Br)c3)c-2n1`?
Retention_time [1]: 20.1 min; Drug metabolism (Liver microsome [2]): metabolite_detected; Drug metabolism (Liver microsome [3]): metabolite_detected

For `CNc1nc2cc[nH]c(=O)c(Cc3cc(Br)c(OC)c(Br)c3)c-2n1`, which Drug metabolism (Liver microsome [5]) is on record?
The Drug metabolism was “metabolite_detected”.
